Source: ChEMBL document CHEMBL1133825, “3-D-QSAR/CoMFA and recognition models of benzimidazole derivatives at the 5-HT(4) receptor” (Bioorg Med Chem Lett, 2001)

Experiments:
[1] = target: T1, 5-hydroxytryptamine receptor 4 (Rattus norvegicus, UniProt Q62758); test: In vitro binding affinity to 5-hydroxytryptamine 4 receptor in rat striatum membrane; type: cell membranes
[2] = target: T1, 5-hydroxytryptamine receptor 4; test: pKi against 5-hydroxytryptamine 4 receptor in rat striatum membrane; type: cell membranes

T1 sequence (Q62758 whole entry): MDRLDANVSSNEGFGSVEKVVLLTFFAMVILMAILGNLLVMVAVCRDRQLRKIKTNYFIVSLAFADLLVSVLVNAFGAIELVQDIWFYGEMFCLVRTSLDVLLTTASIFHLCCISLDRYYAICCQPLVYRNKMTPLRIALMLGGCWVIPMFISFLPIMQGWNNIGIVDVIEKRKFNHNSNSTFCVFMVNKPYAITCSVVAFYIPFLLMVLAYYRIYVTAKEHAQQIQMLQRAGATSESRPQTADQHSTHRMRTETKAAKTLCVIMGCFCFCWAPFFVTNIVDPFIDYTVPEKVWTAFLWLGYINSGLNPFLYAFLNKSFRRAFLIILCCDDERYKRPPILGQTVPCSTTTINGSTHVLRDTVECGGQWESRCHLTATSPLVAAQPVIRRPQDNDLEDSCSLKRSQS

Row | Structure (SMILES) | Ki [1] | Ki [2]
1 | CCCN1CCC(NC(=O)c2cccc3nc[nH]c23)CC1 | > 1000 nM | > 1000 nM
2 | CN1CCC(OC(=O)c2cccc3nc[nH]c23)CC1 | > 10000 nM | > 10000 nM
3 | CCCCN1CCC(CNC(=O)c2cc(Br)c(N)c3nc[nH]c23)CC1 | 27.8 nM | 27.5 nM
4 | CC(C)CN1CCC(CNC(=O)c2cc(Cl)cc3[nH]cnc23)CC1 | 0.29 nM | 0.288 nM
5 | CS(=O)(=O)NCCN1CCC(COC(=O)c2cccc3nc[nH]c23)CC1 | 26.1 nM | 26.3 nM
6 | CCCCN1CCC(NC(=O)c2cccc3nc[nH]c23)CC1 | 290 nM | 288 nM
7 | CCCCN1CCC(COC(=O)c2cc(Cl)cc3[nH]cnc23)CC1 | 2.9 nM | 2.88 nM
8 | CCCCN1CCC(CNC(=O)c2cc(Cl)cc3[nH]cnc23)CC1 | 0.32 nM | 0.324 nM
9 | CS(=O)(=O)NCCN1CCC(CNC(=O)c2cccc3[nH]cnc23)CC1 | 11.4 nM | 11.5 nM
10 | CCN1CCC(NC(=O)c2cccc3[nH]cnc23)CC1 | > 1000 nM | > 1000 nM
11 | CCCCN1CCC(COC(=O)c2cccc3nc[nH]c23)CC1 | 24.6 nM | 24.5 nM
12 | CC(C)CN1CCC(CNC(=O)c2cc(Cl)cc3c2ncn3Cc2ccccc2)CC1 | 69.2 nM | 69.2 nM
13 | CCCCN1CCC(CNC(=O)c2ccc(N)c3[nH]cnc23)CC1 | 115 nM | 115 nM
14 | CC(C)CN1CCC(CNC(=O)c2cc(Cl)cc3c2ncn3C)CC1 | 2.2 nM | 2.19 nM
15 | CCCCN1CCC(CNC(=O)c2cc(Cl)c([N+](=O)[O-])c3nc[nH]c23)CC1 | 44.6 nM | 44.7 nM
16 | CCCCCN1CCC(CNC(=O)c2cc(Cl)cc3[nH]cnc23)CC1 | 0.54 nM | 0.537 nM
17 | CCCCN1CCC(CNC(=O)c2cc(Cl)c(N)c3[nH]cnc23)CC1 | 22.4 nM | 22.4 nM
18 | CS(=O)(=O)NCCN1CCC(COC(=O)c2cc(Cl)cc3[nH]cnc23)CC1 | 2.3 nM | 2.29 nM
19 | CCCCN1CCC(CNC(=O)c2cccc3[nH]cnc23)CC1 | 13.7 nM | 13.8 nM
20 | CCCCN1CCC(CNC(=O)c2cc(Br)c([N+](=O)[O-])c3[nH]cnc23)CC1 | 48.2 nM | 47.9 nM
21 | CCCCN1CCC(CNC(=O)c2cc(Br)cc3[nH]cnc23)CC1 | 0.64 nM | 0.646 nM
22 | CS(=O)(=O)NCCN1CCC(CNC(=O)c2cc(Cl)cc3[nH]cnc23)CC1 | 0.11 nM | 0.11 nM
